# Experimental data taken from patent US20040180417A1, “Secretase/sheddase with asp-ase activity on the beta-site app-cleaving enzyme (bace, asp2, memepsin2)” (priority 2000, published 2004).
# Starred links: 1 amine or outer side, 2 acyl side, 3 side chain; linkers in the order of their positions; H or OH if unused. Non-standard residues stand in square brackets, D forms with d. Residues, ends and D or L forms follow the SMILES beside them. *: point of attachment. X1 = CC(N[*:1])C(=O)C(F)(F)C(=O)[*:2]; Cbz = O=C(OCc1ccccc1)*; Boc = CC(C)(C)OC(=O)*; CH2F = FC*
# Experiments:
# [1] = tested on: γ-secretase; experiment: βAPP processing (Aβ, C99) in Neuro 2a APPSW cells; assay type: cell-based; details: 100 uM inhibitor, 3 hrs
# Protocol: (§1) FIG. 8: [A] Neuro 2a APPSW cells were transiently transfected with cDNA for [BACEF]FG. Cells were labeled with ^35S-Met for 3 hrs in the absence (−, DMSO control) or presence of 100 uM of a substrate based γ-secretase inhibitor (+γ-sec I, DFK-167 Enzyme Systems products). Cell lysates were immunoprecipitaed with FG antibodies, reduced and analyzed by SDS-PAGE on 8% tricine gels. Cell lysates [B] and media [C] were immunoprecipited with antibody APP711-03 and analyzed by SDS-PAGE on 8% tricine gels. [D] Media was immunoprecipited with the 1-40 Aβ antibody and analyzed on a 14% tricine gel. The exposure time was 3 days.
# C-terminal processing of BACE—In order to further characterize the nature of apparent C-terminal cleaved BACE fragments (FIG. 5C), the analysis of [BACEF]FG fragments immunoprecipitated with antiserum to Flag from HK293 cells were repeated. In addition to the 6 kDa fragment noted in FIG. 5C, fragments of 34, 15, and 11 kDa are apparent (FIG. 7). […] In addition, the intensity of the 11 and 6 kDa bands appear to diminish. It was expected that some of these BACE fragments would be disulfide linked, since it is known that the six Cys residues in the ectodomain form three intramolecular disulfide linkages (Cys^216-Cys^420, Cys^278-Cys^443, Cys^330-Cys^380) (41). The 34, 15, 11 and 6 kDa BACE fragments are also apparent when [BACEF]FG is expressed in Neuro 2a cells (FIG. 8). […]
# [2] = tested on: BACE secretase/sheddase; experiment: BACE secretase/sheddase activity (BACE C-terminal fragments) in Neuro 2a cells; assay type: cell-based
# Protocol: as §1
# Transfections and biosynthetic analyses—All transfections were done on 2−4×10^5 HK293 cells using Effectene (Qiagen) and a total of 1-1.5 μg of BACE contruct cDNAs subcloned into the vector pIRES2-EGFP. Two days post-transfection the cells were washed and then pulse-incubated for various times with either 200 μCi/ml of [^35S]Met; 400 μCi/ml Na2[^35SO4], [^3H]Leu, [^3H]Arg, [^3H]Ser; or 1 mCi/ml [^3H]palmitate EN) (20). Pulse-chase experiments with [^35S]Met were carried out as previously described (21). Cells were lysed in immunoprecipitation buffer [150 mM NaCl, 50 mM Tris-HCl pH 6.8, 0.5% NP40, 0.5% sodium deoxycholate and a protease inhibitor cocktail (Roche Diagnostics). The lysates and media were then prepared for immunoprecipitations as reported (22). The monoclonal antibodies used were directed against either the FL (Flag-M2; 1:500 dilution; Stratagene) or V5 (1:1000 dilution; Invitrogen) epitopes. Rabbit polyclonal antisera included those directed against aa 1-16 of human Aβ (produced in laboratory, dilution 1:200); anti-β-amyloid, recognizing mostly the C-terminal part of Aβ40 (A8326, dilution 1:200, Sigma); and FCA 18, recognizing all peptides starting with the Asp at the N-terminus of Aβ (23). Immunoprecipitates were resolved on SDS-PAGE (either 8% or 14% tricine gels) and autoradiographed (21). All PC inhibitor proteins were cloned in pcDNA3 (Invitrogen), including those of α1-PDX (8); the preprosegments of furin, PC7 (24), PC5 (25), SKI-1 (26,27); and wild type (α2-M) and furin-site mutated (α2-MG-F) α2-macroglubulin (28).
# C-terminal processing of BACE—In order to further characterize the nature of apparent C-terminal cleaved BACE fragments (FIG. 5C), the analysis of [BACEF]FG fragments immunoprecipitated with antiserum to Flag from HK293 cells were repeated. In addition to the 6 kDa fragment noted in FIG. 5C, fragments of 34, 15, and 11 kDa are apparent (FIG. 7). […] In addition, the intensity of the 11 and 6 kDa bands appear to diminish. It was expected that some of these BACE fragments would be disulfide linked, since it is known that the six Cys residues in the ectodomain form three intramolecular disulfide linkages (Cys^216-Cys^420, Cys^278-Cys^443, Cys^330-Cys^380) (41). The 34, 15, 11 and 6 kDa BACE fragments are also apparent when [BACEF]FG is expressed in Neuro 2a cells (FIG. 8). The relative levels of the 11 kDa fragment compared to the other cleaved fragments of BACE appear lower in Neuro 2a compared to HK293 cells. In any case, the sites of ectodomain cleavage are apparently the same in the two cell types. […] The significance of an apparent reduction in the level of the 6 kDa BACE fragment is unknown.
# [3] = tested on: proBACE processing by PC-like enzyme; experiment: proBACE processing in HK293 cells co-expressing [BACEF]FG/V5 and PC-inhibitors (pulse-chase, immunoprecipitation, SDS-PAGE); assay type: cell-based, human; details: 15 min [35S]Met pulse, chase 1 h or 2h; FG epitope; α1-PDX co-transfected or BFA present
# Protocol: FIG. 1: HK293 cells were transiently co-transfected with either ([BACEF]FG/V5+BDNF) [control, CTL] (A,C) or ([BACEF]FG/V5+α1-PDX) (B,D) cDNAs. Two days post-transfections the cells were pulse-labeled in the absence or presence of […] BFA for 15 min with [^35S]Met and then chased for 1 or 2h. Cell lysates were immunoprecipitated with either the FG or V5 mAbs and analysed by SDS-PAGE on 8% tricine gels. The migration position of the 53 kDa molecular mass standard and those of proBACE (pBACE) and BACE are emphasized.
# FIG. 2: [A] HK293 cells were transiently co-transfected with cDNAs coding for either ([BACEF]FG/V5+BDNF) [control, CTL], ([BACEF-R45A]FG/V5+BDNF) or ([BACEF-R42A]FG/V5+BDNF) or ([BACEF]FG/V5+either α1-PDX, the prosegments of furin, PC5, PC7, SKI-1, furin-mutated (α2M-F) or wild type (α2M) α2-macroglobulin. The cells were pulse-labeled for 20 min with [^35S]Met and then chased for 90 min. Cell lysates were immunoprecipitated with the FG mAb and analysed by SDS-PAGE on 8% tricine gels. [B] HK293 cells were transiently co-transfected with cDNAs coding for either ([BACEF]FG/V5+BDNF) [CTL], ([BACEF]FG/V5+furin) or ([BACEF]FG/V5+α1-PDX). The cells were then pulse-labeled for 2h with Na2[^35SO4]. Cell lysates were immunoprecipitated with the FG or V5 mAbs and analysed by SDS-PAGE on 8% tricine gels. […]
# [4] = tested on: proBACE; experiment: Exit of proBACE from the ER in HK293 cells (3h [35S]Met pulse); assay type: cell-based, human; details: 90 μM BFA or 250 nM bafilomycin, 37° C.
# Protocol: FIG. 5: HK293 cells were transiently transfected with cDNAs coding for either [A,B] (BDNF+βAPPSW) [CTL] or ([BACEF]FG+βAPPSW), [C] [BACEF]FG or [BACES]FG. The cells were pulse-labeled for 3h with [^35S]Met at either 37° C. in the absence or presence of 90 μM BFA or 250 nM bafilomycin or at 20° C. Cell lysates were immunoprecipitated with either [A] the FG mAb or [B] the 1-16 Aβ antibody, and analysed by SDS-PAGE on 8% tricine gels. [C] FG antibody, and analysed by SDS-PAGE on 8% tricine gels. The arrowhead point to an ˜6 kDa intracellular stub of BACEF.
# Transfections and biosynthetic analyses—All transfections were done on 2−4×10^5 HK293 cells using Effectene (Qiagen) and a total of 1-1.5 μg of BACE contruct cDNAs subcloned into the vector pIRES2-EGFP. Two days post-transfection the cells were washed and then pulse-incubated for various times with either 200 μCi/ml of [^35S]Met; 400 μCi/ml Na2[^35SO4], [^3H]Leu, [^3H]Arg, [^3H]Ser; or 1 mCi/ml [^3H]palmitate EN) (20). Pulse-chase experiments with [^35S]Met were carried out as previously described (21). Cells were lysed in immunoprecipitation buffer [150 mM NaCl, 50 mM Tris-HCl pH 6.8, 0.5% NP40, 0.5% sodium deoxycholate and a protease inhibitor cocktail (Roche Diagnostics). The lysates and media were then prepared for immunoprecipitations as reported (22). […]
# [5] = target: T1, BACE (Mus musculus, UniProt P56818); experiment: In vitro β-secretase activity on a 20 aa synthetic βAPPSW peptide (RP-HPLC); assay type: biochemical
# T1 construct: TDEST454; FLAG (DYKDDDDK), inserted just after the signal peptide cleavage site (after Ala19) (N); made in house; host or cells: HK293 cells, transiently transfected; 10-20 fold-concentrated medium
# T1 sequence (P56818 46-457 limits assumed): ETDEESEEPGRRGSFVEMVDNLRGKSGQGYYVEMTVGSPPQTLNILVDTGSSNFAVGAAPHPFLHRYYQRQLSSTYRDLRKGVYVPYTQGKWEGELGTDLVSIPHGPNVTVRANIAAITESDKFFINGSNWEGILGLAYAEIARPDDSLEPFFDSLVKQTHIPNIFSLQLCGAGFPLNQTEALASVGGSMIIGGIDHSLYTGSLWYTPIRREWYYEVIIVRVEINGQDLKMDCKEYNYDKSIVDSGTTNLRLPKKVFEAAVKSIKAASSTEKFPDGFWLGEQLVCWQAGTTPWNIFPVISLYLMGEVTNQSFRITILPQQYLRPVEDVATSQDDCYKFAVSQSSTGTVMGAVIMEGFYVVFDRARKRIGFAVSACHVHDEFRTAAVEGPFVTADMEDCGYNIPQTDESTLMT
# [6] = tested on: [proBACES]FG/V5; experiment: In vitro PC-mediated processing of proBACES (Western blot); assay type: biochemical, mouse; details: equivalent hydrolytic activities of PCs, 1-4 hours incubation
compound,measurement,setting,value
CCC(C)C(NC(=O)C(NC(=O)OC(C)(C)C)C(C)C)C(=O)NC(C)C(=O)C(F)(F)C(=O)NC(C(=O)NC(C(=O)OC)C(C)CC)C(C)C (stereo not shown) (Boc-VI[X1]VI-OMe; configuration not given here),cellular C99 levels,[1]; cell lysates,elevates
same,Aβ formation,[1]; media,completely inhibits
same,"levels of BACE fragments (34, 15 and 11 kDa)","[2]; Neuro 2a APPSW cells transfected with [BACEF]FG, 100 uM inhibitor, 3 hrs",largely unchanged
same,inhibition of BACE secretase/sheddase activity,[2]; Neuro 2a cells,does not inhibit
"C[C@H]1CCC/C=C/[C@@H]2C[C@H](O)C[C@H]2[C@H](O)/C=C/C(=O)O1 [BFA, brefeldin A]",72 kDa proBACE form,[3],not apparent
same,escape of 66 kDa proBACE from the ER,[4],prevented
CNC(=O)[C@H](Cc1c[nH]c2ccccc12)NC(=O)[C@@H](CC(=O)NO)CC(C)C [GM6001],inhibition of BACE secretase/sheddase activity,[2]; Neuro 2a cells,did not inhibit
CC(C)C[C@H](CC(=O)NO)C(=O)N[C@@H](Cc1ccc2ccccc2c1)C(=O)N[C@@H](C)C(=O)NCCN [TAPI-1],inhibition of BACE secretase/sheddase activity,[2]; Neuro 2a cells,did not inhibit
COC(=O)C[C@H](NC(=O)[C@H](C)NC(=O)[C@@H](NC(=O)OCc1ccccc1)C(C)C)C(=O)CF [Z-Val-Ala-Asp(OMe)-CH2F] (Cbz-Val-Ala-Asp(OMe)-CH2F),effect on BACE secretase/sheddase activity,"[2]; Neuro 2a cells, 100 uM",had no effect
CO/C1=C\C(C)=C\[C@@H](C)[C@@H](O)[C@@H](C)C/C(C)=C/C=C/[C@H](OC)[C@@H]([C@@H](C)[C@@H](O)[C@H](C)[C@@]2(O)C[C@@H](O)[C@H](C)[C@@H](C(C)C)O2)OC1=O [bafilomycin],escape of 66 kDa proBACE from the ER,[4],retarding effect
THLGIRLPLRSGLAGPPLGLRLPR [proBACE 22-45],inhibition of the Swedish peptide substrate cleavage,"[5]; 20 μM peptide pre-incubated with active BACE, substrate at 10 μM",20%
furin,increase in the level of BACE activity,"[5]; pre-incubation of BACES-containing media with furin, four separate experiments",50±3%
same,time to completely process proBACE into BACE,[6],≤ 2 h
